Reference: patent US10898561B2, “Peptides and combination of peptides for use in immunotherapy against pancreatic cancer and other cancers” (IMMATICS BIOTECHNOLOGIES GMBH, priority 2015, dated 2021)

Tests used:
CD8+ T cells = assay: In vitro T-cell priming assay with aAPCs loaded with peptide/MHC complexes and anti-CD28 antibody, multimer readout; format: cell-based, human; details: in vitro immunogenicity, healthy HLA-A*02 donors; for donors: positive donors; for wells: positive wells
Text: In order to obtain information regarding the immunogenicity of the TUMAPs of the present invention, the inventors performed investigations using an in vitro T-cell priming assay based on repeated stimulations of CD8+ T cells with artificial antigen presenting cells (aAPCs) loaded with peptide/MHC complexes and anti-CD28 antibody.
In order to perform in vitro stimulations by artificial antigen presenting cells loaded with peptide-MHC complex (pMHC) and anti-CD28 antibody, the inventors first isolated CD8+ T cells from fresh HLA-A*02 leukapheresis products via positive selection using CD8 microbeads (Miltenyi Biotec, Bergisch-Gladbach, Germany) of healthy donors obtained from the University clinics Mannheim, Germany, after informed consent.
PBMCs and isolated CD8+ lymphocytes were incubated in T-cell medium (TCM) until use consisting of RPMI-Glutamax (Invitrogen, Karlsruhe, Germany) supplemented with 10% heat inactivated human AB serum (PAN-Biotech, Aidenbach, Germany), 100 U/ml Penicillin/100 μg/ml Streptomycin (Cambrex, Cologne, Germany), 1 mM sodium pyruvate (CC Pro, Oberdorla, Germany), 20 μg/ml Gentamycin (Cambrex). 2.5 ng/ml IL-7 (PromoCell, Heidelberg, Germany) and 10 U/ml IL-2 (Novartis Pharma, Nürnberg, Germany) were also added to the TCM at this step.
Generation of pMHC/anti-CD28 coated beads, T-cell stimulations and readout was performed in a highly defined in vitro system using four different pMHC molecules per stimulation condition and 8 different pMHC molecules per readout condition.
The purified co-stimulatory mouse IgG2a anti human CD28 Ab 9.3 (Jung et al., 1987) was chemically biotinylated using Sulfo-N-hydroxysuccinimidobiotin as recommended by the manufacturer (Perbio, Bonn, Germany). Beads used were 5.6 μm diameter streptavidin coated polystyrene particles (Bangs Laboratories, Ill., USA).
800.000 beads/200 μl were coated in 96-well plates in the presence of 4×12.5 ng different biotin-pMHC, washed and 600 ng biotin anti-CD28 were added subsequently in a volume of 200 μl. Stimulations were initiated in 96-well plates by co-incubating 1×10^6 CD8+ T cells with 2×10^6 washed coated beads in 200 μl TCM supplemented with 5 ng/ml IL-12 (PromoCell) for 3 days at 37° C. Half of the medium was then exchanged by fresh TCM supplemented with 80 U/ml IL-2 and incubating was continued for 4 days at 37° C. This stimulation cycle was performed for a total of three times. For the pMHC multimer readout using 8 different pMHC molecules per condition, a two-dimensional combinatorial coding approach was used as previously described (Andersen et al., 2012) with minor modifications encompassing coupling to 5 different fluorochromes. Finally, multimeric analyses were performed by staining the cells with Live/dead near IR dye (Invitrogen, Karlsruhe, Germany), CD8-FITC antibody clone SK1 (BD, Heidelberg, Germany) and fluorescent pMHC multimers. For analysis, a BD LSRII SORP cytometer equipped with appropriate lasers and filters was used. Peptide specific cells were calculated as percentage of total CD8+ cells. Evaluation of multimeric analysis was done using the FlowJo software (Tree Star, Oregon, USA). In vitro priming of specific multimer+CD8+ lymphocytes was detected by comparing to negative control stimulations.

HLA-A*02:01 = HLA-A*02:01 (Homo sapiens, UniProt P04439, D140Y/D185E/D98H/E176V/E277Q/G131W/G231S/I119V/I121R/I166T/I218V/L300P/L318F/N151K/N90K/P208A/P217A/Q86G/Q94H/R138H/R169H/T345S); assay: MHC binding assay: UV-ligand exchange with beta2m ELISA; details: MHC class I binding score, yield of UV-ligand exchange
Text: Candidate peptides for T cell based therapies according to the present invention were further tested for their MHC binding capacity (affinity). The individual peptide-MHC complexes were produced by UV-ligand exchange, where a UV-sensitive peptide is cleaved upon UV-irradiation, and exchanged with the peptide of interest as analyzed. Only peptide candidates that can effectively bind and stabilize the peptide-receptive MHC molecules prevent dissociation of the MHC complexes. To determine the yield of the exchange reaction, an ELISA was performed based on the detection of the light chain (β2m) of stabilized MHC complexes. The assay was performed as generally described in Rodenko et al. (Rodenko et al., 2006).
96 well MAXISorp plates (NUNC) were coated over night with 2 ug/ml streptavidin in PBS at room temperature, washed 4× and blocked for 1 h at 37° C. in 2% BSA containing blocking buffer. Refolded HLA-A*02:01/MLA-001 monomers served as standards, covering the range of 15-500 ng/ml. Peptide-MHC monomers of the UV-exchange reaction were diluted 100 fold in blocking buffer. Samples were incubated for 1 h at 37° C., washed four times, incubated with 2 ug/ml HRP conjugated anti-β2m for 1 h at 37° C., washed again and detected with TMB solution that is stopped with […]. Absorption was measured at 450 nm. Candidate peptides that show a high exchange yield (preferably higher than 50%, most preferred higher than 75%) are generally preferred for a generation and production of antibodies or fragments thereof, and/or T cell receptors or fragments thereof, as they show sufficient avidity to the MHC molecules and prevent dissociation of the MHC complexes.

| Substance | Wells positive [%] (CD8+ T cells) | Peptide exchange (HLA-A*02:01) | donors (CD8+ T cells) | wells (CD8+ T cells) |
| --- | --- | --- | --- | --- |
| 21 (HLMDQPLSV; listed as Homo sapiens) [compound 21] | + (<20% = +) | ++ (20%-49% = ++) |  |  |
| 20 (RLAGDGVGAV; listed as Homo sapiens) [compound 20] | ++++ (>=70% = ++++) | ++ (20%-49% = ++) |  |  |
| 3 (ALLTFMEQV; listed as Homo sapiens) [compound 3] | ++ (20%-49% = ++) | +++ (50%-75% = +++) |  |  |
| 50 (ALAAILTRL; listed as Homo sapiens) [compound 50] | +++ (50%-69% = +++) | +++ (50%-75% = +++) |  |  |
| 87 (LLLGSPAAA; listed as Homo sapiens) [compound 87] |  |  | +++ (50%-69% = +++) | + (<20% = +) |
| 37 (GLLKKINSV; listed as Homo sapiens) [compound 37] | + (<20% = +) | ++ (20%-49% = ++) |  |  |
| 69 (VMAPFTMTI; listed as Homo sapiens) [compound 69] |  |  | ++++ (>=70% = ++++) | ++ (20%-49% = ++) |
| 23 (SLSAFTLFL; listed as Homo sapiens) [compound 23] | ++ (20%-49% = ++) | ++ (20%-49% = ++) |  |  |
| 34 (MLMPVHFLL; listed as Homo sapiens) [compound 34] | + (<20% = +) | ++++ (>=75% = ++++) |  |  |
